Results taken from paper PMC7822819, “Discovery of a new class of integrin antibodies for fibrosis” (Scientific Reports, 2021).
Several values for one entry are separate records, joined by “and”; a condition that tells them apart may be missing. Equal entries are not always repeated. Where two headings read alike, the source gives them in different places.

Key:
[1] = Plasma total drug concentration in bleomycin model (LC-MS/MS); format: in vivo, mouse; settings: 2 h after last dose, Day 19; MK-0429 200 mpk minipump, Nintedanib 60 mpk po qd; mean ± SE
Experimental: Mice at 12 ~ 13 weeks of age were randomized to 5 groups: saline, bleomycin instillation with vehicle (osmotic minipump), bleomycin instillation with MK-0429 treatment, bleomycin instillation with vehicle oral treatment, and bleomycin instillation with Nintedanib treatment. All mice were anaesthetized with isoflurane. Bleomycin was dosed by intra-tracheal (i.t) instillation in a volume of 50 µl, at a dose of 1unit /kg body weight. After instillation, mice were kept in a heads-up position for 2–5 min before putting into cages. MK-0429 (200 mg/kg) was administered by Osmotic pump from day 5 to day 14 and Nintedanib (60 mg/kg) was administered, p.o., q.d., for 14 days. Vehicle was dosed orally at 10 am daily from the day 5 to the end of the studies and dosing volume was 10 mL/kg. For plasma PK analysis, an aliquot of 50 μL plasma was spiked into a 96-well plate, and 200 μL of acetonitrile containing internal standard were added for protein precipitation. The mixture was vortexed, centrifuged at 4000 rpm for 20 min. 50 μL of supernatant were mixed with 200 μl H2O and the final solution were injected for LC–MS/MS analysis. The methods for quantitative analysis were developed on UPLC (Waters) chromatographic system equipped with an API4000 QTrap mass spectrometer (Applied Biosystems, Concord, Ontario, Canada). […]

CHOK1 parental cells = test: Cell adhesion assay (Epic) on fibronectin; format: cell-based, hamster; settings: in words
[2] = test system: normal human lung fibroblasts; test: TGFβ-induced αSMA high-content imaging; format: cell-based; settings: 10 μM, 30 min pre-treatment, TGFβ 5 ng/mL, 48 h
Experimental: Normal human lung fibroblasts (Lonza) and Primary Human IPF Lung Parenchymal Fibroblasts (Donor2) (BioIVT, #PCR-70-0214) were incubated at 37 °C and 5% CO2. To induce fibrotic response in primary cells, a final concentration of 5 ng/ml of recombinant human TGFβ1 (BioLegend, #580702) was added to the culture media and treated for 24 ~ 48 h. Anti-TGFβ neutralizing antibody (1D11) and the isotype control mouse IgG1 were from BioXcell. SB-525334 and bleomycin were from Sigma. MK-0429 was synthesized by Merck & Co., Inc., Kenilworth, NJ, USA. CHOK1-integrin stable lines were cultured in DMEM/F12, Glutamax (Gibco #10565018), 10% FBS (Gibco 310091148), 1 × Pen/Strep (Gibco 315140-148), and 6 ug/mL Puromycin (Gibco #A1113803).
Primary cells (passage 3–5) were grown on Cell carrier Ultra, col1 coated 96-well plates (Perkin Elmer, #6055700) at a density of 25,000 cells/well. Once the cells adhere, they were starved in serum free media for 24 h followed by addition of treatments i.e. 5 ng/mL TGFβ (Biolegend #580702) ± inhibitors. Cells were pre-treated with inhibitors for 30 min prior to the addition of TGFβ stimulation. 48hours post treatment, the cells were fixed in 4% methanol free paraformaldehyde (ThermoFisher Scientific #28908) for 20 min at room temperature and incubated with anti-alpha smooth muscle Actin antibody (Abcam #ab7817) at 1:4000 overnight at 4 °C. […]

[3] = test system: diabetic nephropathy model; design: method as in PMID 28971604; settings: cited from earlier work
[4] = design: method as in PMID 15687321; settings: humans; cited from earlier work
human αvβ6 = human αvβ6 (Homo sapiens, UniProt P06756+P18564); test: AlphaLISA integrin-ligand binding assay; format: biochemical; design: hαV 1 992; hβ6 1 709; made in house; host or cells: Expi293
Chain of human αvβ6 (P06756 31-992): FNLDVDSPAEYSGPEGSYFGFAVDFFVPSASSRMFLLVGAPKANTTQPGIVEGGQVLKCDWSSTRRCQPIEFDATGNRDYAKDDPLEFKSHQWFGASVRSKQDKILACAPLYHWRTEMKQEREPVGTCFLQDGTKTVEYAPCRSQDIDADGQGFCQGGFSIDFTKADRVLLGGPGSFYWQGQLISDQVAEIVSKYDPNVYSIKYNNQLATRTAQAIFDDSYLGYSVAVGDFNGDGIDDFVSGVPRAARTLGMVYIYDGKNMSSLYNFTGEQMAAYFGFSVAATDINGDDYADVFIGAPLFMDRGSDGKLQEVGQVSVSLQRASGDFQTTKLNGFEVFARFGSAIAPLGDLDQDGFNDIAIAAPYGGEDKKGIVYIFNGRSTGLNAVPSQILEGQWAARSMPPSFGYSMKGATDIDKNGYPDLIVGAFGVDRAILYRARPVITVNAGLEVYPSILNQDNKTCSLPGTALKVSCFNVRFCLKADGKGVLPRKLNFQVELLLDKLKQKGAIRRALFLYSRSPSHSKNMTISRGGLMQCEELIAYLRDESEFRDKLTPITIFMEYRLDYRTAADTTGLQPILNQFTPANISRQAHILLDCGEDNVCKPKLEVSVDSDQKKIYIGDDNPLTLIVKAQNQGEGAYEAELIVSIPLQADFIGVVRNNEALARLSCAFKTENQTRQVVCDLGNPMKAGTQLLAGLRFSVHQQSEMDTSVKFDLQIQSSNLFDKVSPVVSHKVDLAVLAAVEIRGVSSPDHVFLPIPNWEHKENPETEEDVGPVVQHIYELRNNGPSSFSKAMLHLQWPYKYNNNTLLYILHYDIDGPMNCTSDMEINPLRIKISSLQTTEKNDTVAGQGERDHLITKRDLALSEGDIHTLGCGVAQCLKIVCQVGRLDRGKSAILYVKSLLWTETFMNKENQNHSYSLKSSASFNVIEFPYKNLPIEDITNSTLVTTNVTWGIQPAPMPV
Chain of human αvβ6 (P18564 22-709): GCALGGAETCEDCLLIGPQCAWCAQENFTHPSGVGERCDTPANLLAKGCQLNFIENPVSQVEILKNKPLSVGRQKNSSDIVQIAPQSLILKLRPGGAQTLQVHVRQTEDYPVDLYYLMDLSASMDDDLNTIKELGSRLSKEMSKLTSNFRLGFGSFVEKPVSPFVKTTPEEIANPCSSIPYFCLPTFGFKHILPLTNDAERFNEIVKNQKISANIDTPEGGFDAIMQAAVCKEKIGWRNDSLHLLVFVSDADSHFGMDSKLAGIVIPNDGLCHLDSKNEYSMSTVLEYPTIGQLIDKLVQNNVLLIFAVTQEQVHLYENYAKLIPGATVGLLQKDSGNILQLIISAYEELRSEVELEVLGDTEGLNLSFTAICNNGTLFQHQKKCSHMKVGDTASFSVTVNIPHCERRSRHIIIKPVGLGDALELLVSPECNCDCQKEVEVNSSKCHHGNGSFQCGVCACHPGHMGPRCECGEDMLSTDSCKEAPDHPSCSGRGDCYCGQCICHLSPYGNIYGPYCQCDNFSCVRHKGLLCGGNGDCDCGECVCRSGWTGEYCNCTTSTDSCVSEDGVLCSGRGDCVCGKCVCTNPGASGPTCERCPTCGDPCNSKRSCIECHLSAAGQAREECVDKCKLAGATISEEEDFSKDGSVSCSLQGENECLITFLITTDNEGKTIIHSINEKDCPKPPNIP
Experimental: In the AlphaLISA integrin assays, we used a HEPES based buffer (25 mM HEPES pH 7.4, 137 mM NaCl, 1 mM MgCl2, 1 mM MnCl2, 2 mM CaCl2, 2.7 mM KCl, and 0.05% Tween-20). Optimal assay conditions were determined with a titration of the reagents for signal noise ratio (S/N), linear range, etc. For the respective integrins, we used the final concentrations described in Supplemental Table S3. Briefly, the testing antibody (8 μL) was added as a 4x (of Final testing concentration) solution in the HEPES buffer described previously into a 384w AlphaPlate (Perkin Elmer #6005350). Then the integrin and ligand were added sequentially as 8x (4 μL each). Plates were sealed and incubated at room temperature for 2 h. Then 4 × acceptor bead solution (8 μL) was added, and the plates were resealed and incubated at RT for 1 h. Finally, 4 × (8 μL) donor beads solution was added in a darkened room and incubated for 45 min at room temperature. Plates were read on the Envision (Perkin Elmer) in AlphaScreen mode within 3 h of donor bead addition.
Supplemental Table S3. integrin AlphaLIS A assay reagents and conditions Human A l phal i sa Inte gri n A ssays: Fi nal Condi ti ons […]
( batch de pe nde nt) anti body A l phaLi sa A cce ptor havb1 1. 4 nM 1. 0 nMα - Fi brone cti n human Fi brone cti n n/a A cce ptor be ads/ Pe rki n 10. 0 ug/ m 10. 0 ug/ m […]
havb3 3. 0 nM 10. […]

COc1ccc(C(CC(=O)O)N2CCN(CCCc3ccc4c(n3)NCCC4)C2=O)cn1 (centres unmarked) [MK-0429]
Mean plasma total drug concentration [1]: 3701 ng/mL and 3701 ± 902 ng/mL | Effect on cell adhesion, CHOK1 parental cells (CHOK1 parental cells): little inhibitory activity | αSMA intensity and percentage of stimulated cells following TGFβ treatment [2]: significantly reduced | Proteinuria [3]: reduces | Renal fibrosis [3]: reduces | Oral bioavailability [4]: good | IC50 (human αvβ6; Fig. 3D, assay optimisation, read-out: IC50 human αvβ6 AlphaLISA): 3.8 nM | IC50 (human αvβ6; Fig. 4B, read-out: IC50 Human integrin AlphaLISA assays: hαvβ6): 0.5 nM
